In PMC6107127, “Characteristics of the mitochondrial and cellular uptake of MPP^+, as probed by the fluorescent mimic, 4'I-MPP^+” (PLoS ONE, 2018):

Tests used:
[1] = system: isolated intact MN9D mitochondria; test: Effects of Ca2+ and inhibitors on MN9D mitochondrial uptake of 4'I-MPP+; parameters: species or system mouse
Description: Intact MN9D cell mitochondria were incubated with 200 μM 4'I-MPP^+ for 45 min at 37 °C in 0, 500 or 1000 nM Ca^2+ containing KCl buffer. When mNCX inhibitors (KBR7943, 2APB and CGP37157) were used, mitochondrial suspensions were initially incubated with 10, 25 or 50 μM inhibitor in KCl buffer for 10 min at 37 °C and then with 200 μM 4'I- MPP^+ for 45 min at 37 °C. After the incubations, samples were centrifuged at 7,000 x g at 4 °C for 10 min and the mitochondrial pellets were treated with 75 μL of 0.1 M HClO4. […] To visualize the effect of CGP37157 on the mitochondrial uptake of 4'I-MPP^+ in live cells, HepG2 cells grown in glass-bottomed plates were incubated with 50 μM CGP37157 for 30 min initially and then with 100 μM 4'I-MPP^+ and 200 nM MitoTracker Green FM in KRB-HEPES for 1 h at 37 °C. After incubation cells were washed and reconstituted with KRB-HEPES, pH 7.4 and 4'I-MPP^+ and MitoTracker Green FM fluorescence images of cells were recorded as detailed above. Controls were treated under the same experimental conditions, except that CGP37157 was omitted from the initial incubation.
S4 Fig. Effects of Benzamil, Verapamil, FFA, and ruthenium red on the MN9D mitochondrial uptake of 4'I-MPP+. MN9D mitochondrial suspensions were initially incubated with a 50 μM concentration of the desired agent (10 μM Ruthenium red) in KCl buffer for 10 min at 37 °C and then incubated with 200 μM 4'I-MPP+ for 45 min at 37 °C. After the incubations, the […] 4'I-MPP+ contents were quantified by RP-HPLC-UV as described in Material and methods. The data are represented as mean ± S.D (n=3).
(also on this page, place not known: contol 10uM Ru red BenzamilVerapamil FFA 4I' MPP+ uptake (nmoles/mg) 0.0 0.1 0.2 0.3 0.4 0.5)
(1 picture or pasted object on this page, not shown here)

[2] = Relative HPLC elution times and hydrophobicities; assay type: physicochemical
HepG2 cells [3] = test: Effect of CGP37157 and KBR7943 on 4'I-MPP+-mediated mitochondrial membrane depolarization (TMRM); assay type: cell-based, human; details: 50 μM pre-treatment 30 min, 100 μM 4'I-MPP+
Description: HepG2 cells grown in glass-bottomed plates for two days were treated with 50 μM CGP37157 or KBR7943 in KRB-HEPES for 30 min followed by 50 nM TMRM in KRB-HEPES for 45 min. Then plates were mounted on the stage of the microscope and mitochondrial membrane depolarization upon the treatment with 100 μM 4'I-MPP^+ was measured as a function of time as detailed above. The effect of CGP37157 on the 4'I-MPP^+ mediated mitochondrial membrane depolarization at longer time periods was monitored by observing the reduction of TMRM fluorescence from 0 to 4 h incubations in the presence or absence of CGP37157. HepG2 cells were incubated with or without 10 μM CGP37157 followed by 50 nM TMRM, and finally with 4'I-MPP^+ (100 μM, 0 or 4 h) and the intracellular TMRM fluorescence was recorded. Controls were carried out using an identical protocol except that either CGP37157 or 4'I-MPP^+ were omitted from the incubation media.

MN9D cells [4] = test: Intracellular ATP levels; assay type: cell-based, mouse; details: 100 μM, 6 h at 37 °C
Description: (§1) Cells grown in 12-well plates were treated with 100 μM MPP^+ or 4'I-MPP^+ in KRB-HEPES for 6 h at 37 °C. After the treatments, cells were suspended in 1 mL of ice-cold KRB-HEPES and 50 μL samples were withdrawn for protein quantification. The remaining cell suspensions were centrifuged for 3 min at 3,500 x g at 4 °C and the cell pellets were treated with 1 mL of lysis buffer (0.1 M Tris, 1% Triton X-100, pH 7.5) for 2 min and centrifuged at 3,500 x g for 3 min to remove the cell debris. The ATP contents of the supernatants were measured using a fluorometric ATP assay kit (BioVision, Milpitas CA, USA) following the manufacture’s guidelines. All ATP levels were normalized to the protein content of each sample.

HepG2 cells [5] = test: Intracellular ATP levels; assay type: cell-based, human; details: 100 μM, 6 h at 37 °C
Description: as §1

MN9D cells [6] = test: Cellular uptake of MPP+ and 4'I-MPP+ (HPLC-UV / fluorescence); assay type: cell-based, mouse; details: 100 μM toxin, 60 min, 37 °C, KRB-HEPES
Description: (§2) Cells were seeded into 12-well plates at 0.25 x 10^6 cells/well and grown 2–3 days to about 70–80% confluency. The media was removed and a solution containing 100 μM MPP^+ or 4'I-MPP^+ in warm KRB-HEPES (or without Ca^2+ and with 1.4 mM EGTA) was added to each well and incubated at 37 °C for the desired period of time (see Figure legends for further details). After the incubations, the media were removed and cells were washed with ice-cold KRB-HEPES. Washed cells were suspended in 1.0 mL of ice-cold KRB-HEPES and 50 μL aliquots were withdrawn for protein determination. The remaining cell suspensions were centrifuged at 5000 x g at 4 °C for 5 min and the cell pellets were treated with 75 μL of 0.1 M HClO4. The coagulated proteins were pelleted by centrifugation at 13,200 x g at 4 °C for 8 min and the MPP^+ or 4'I-MPP^+ contents of the supernatants were determined by C18-reversed-phase HPLC-UV (HPLC-UV) as previously described using standard curves constructed from authentic standards. The standard curves for HPLC-UV quantifications were constructed using authentic samples of MPP^+ and 4'I-MPP^+ under the same HPLC-UV separation conditions (S1 Fig).
(§3) To quantify 4'I-MPP^+ uptake by fluorescence, MN9D or HepG2 cells grown in glass bottomed plates, washed, and reconstituted with KRB-HEPES (1.0 mL), pH 7.4, and mounted on the stage of a Nikon ECLIPSE Ti-S inverted fluorescence microscope. […]

HepG2 cells [7] = test: MTT cell viability assay; assay type: cell-based, human; details: MPP+ at 0–1000 μM, 4'I-MPP+ at 0–200 μM; 16 h
Description: (§4) Cell viability was determined by the MTT [3-(4,5-dimethylthiazol-2-yl)-2,5-diphenyltetrazolium bromide)] assay. Briefly, cells were seeded on 96-well plates and allowed to grow to about 70–80% confluence. Prior to the experiment, culture media was replaced with KRB-HCO3^- containing desired concentrations of MPP^+ or 4'I-MPP^+ and incubated for 16 h at 37 °C. After the incubation, 10 μL of 5 mg/mL MTT solution was added to each well and incubated for 2 h at 37 °C. The resulting formazan was solubilized by the addition of 210 μL detergent solution [50% DMF/H2O (v/v), 20% SDS (w/v)] followed by incubation at 37 °C for 12 h. The cell viabilities were determined by quantifying solubilized formazan by measuring the difference in the absorbance at 570 nm and 650 nm. Results were expressed as % viability of MPP^+ or 4'I-MPP^+ treated cells with respect to control cells, which were treated under the same conditions except in the absence of the MPP^+ or 4'I-MPP^+.

MN9D cells [8] = test: MTT cell viability assay; assay type: cell-based; details: Mus musculus, 16 h incubation
Description: as §4

MN9D cells [9] = test: Intracellular ROS (DCFH-DA); assay type: cell-based, mouse; details: 100 μM, 1 h at 37 °C
Description: Cells grown in 12-well plates were incubated with 10 μM DCFH-DA in KRB-HEPES for 1 h. […] After the incubations, cells were washed, harvested, solubilized with 0.1 M Tris buffer (pH 7.5) containing 1% Triton X-100, and cell debris were removed by centrifugation at 13,200 x g for 8 min at 4 °C. The content of ROS-oxidized DCFH product, 2',7'-dichlorofluorescein (DCF) in the supernatants were quantified by fluorescence (Ex/Em 488/524 nm). The data were normalized to the protein contents of individual samples. ROS productions in DCFH-DA (50 μM) loaded 250 μM 4'I-MPP^+ treated (4 h) live MN9D cells were visualized by confocal fluorescence microscopy at Ex/Em 488/524 nm using a Leica TCS SP5II microscope.

HepG2 cells [10] = test: Cellular uptake of MPP+ and 4'I-MPP+ (HPLC-UV / fluorescence); assay type: cell-based, human; details: 100 μM toxin, 60 min
Description: as §2, §3

MN9D cells [11] = test: Chromatin condensation test for apoptosis (DAPI); assay type: cell-based, mouse; details: 250 μM, 12 h
Description: MN9D cells grown in glass-bottomed plates were treated with 250 μM MPP^+ or 4'I- MPP^+ for 12 h and then with 300 nM DAPI in KRB-HEPES for 15 min in the dark at 37 °C [24]. Then cells were rinsed and PBS was added to cover the cell layer. Increase in nuclear DAPI fluorescence (Ex/Em at 358/461 nm) due to chromatin condensation was observed using a Nikon ECLIPSE Ti-S inverted fluorescence microscope. The controls were treated similarly except that MPP^+ or 4'I-MPP^+ was omitted from the initial incubation medium.

MN9D or HepG2 cells = test: Mitochondrial membrane potential depolarization (TMRM); assay type: cell-based; details: 500 μM, in about 45 min
Description: MN9D or HepG2 cells grown in glass-bottomed plates were treated with 50 nM TMRM (AnaSpec, Fremont CA, USA) in KRB-HEPES for 45 min in the dark. After mounting on the stage of a Nikon ECLIPSE Ti-S inverted fluorescence microscope, 15–20 ROIs with uniform fluorescence were selected and TMRM fluorescence at Ex/Em at 543/573 nm was recorded at 5 sec time intervals for 3 min. Then, MPP^+ or 4'I-MPP^+ was added to a final concentration of 500 or 100 μM, respectively and TMRM fluorescence measurements were continued for an additional 40 min for MPP^+ and 15 min for 4'I-MPP^+ at 15 sec time intervals. The background fluorescence was subtracted from the ROI fluorescence and averages of corrected data were used to estimate the magnitude of the mitochondrial membrane potential.

[12] = system: rat brain mitochondrial complex-I (NADH: ubiquinone oxidoreductase); test: Ubiquinone dependent NADH oxidation (complex-I inhibition); assay type: biochemical
Description: Isolated rat brain mitochondria were lysed by freeze-thawing in hypotonic media containing 25 mM K3PO4 and 5 mM MgCl2, pH 7.2 [22]. The complex-I (i.e. NADH: ubiquinone oxidoreductase) activity of mitochondrial membrane fragments were determined according to the procedure of Birch-Machin and Turnbull. Briefly, mitochondrial membranes (50 μg protein) were incubated with 130 μM NADH (final concentration) and Antimycine A (2 μg/mL) in a 1.0 mL assay solution containing 25 mM K3PO4, 5 mM MgCl2, 2 mM KCN, 2.5 mg/mL bovine serum albumin, pH 7.2, for 2 min at 37 °C with or without rotenone, MPP^+ or 4'I-MPP^+ (for further details see the corresponding figure legends). The complex-I mediated ubiquinone dependent NADH oxidation was initiated by adding ubiquinone-1 to a final concentration of 65 μM and the initial rates of the reactions were monitored by following the decrease in absorbance at 340 nm with respect to 425 nm reference wavelength for 5 min.

[13] = 50 μM inhibitor at 200 μM 4'I-MPP+
[14] = 50 μM agent, 200 μM 4'I-MPP+ (S4 Fig)

SMILES: NCCOB(c1ccccc1)c1ccccc1 [2APB]
- effect on uptake of 4'I-MPP+ [1, 13]: inhibit the uptake

SMILES: C[n+]1ccc(-c2ccc(Br)cc2)cc1 [4Br' MPP^+]
- relative elution time (hydrophobicity) ([2]; Buffer:CH3CN 70:30): 9.67
- relative elution time (hydrophobicity) ([2]; Buffer:CH3CN:MeOH 60:30:10): 7.74
- relative elution time (hydrophobicity) ([2]; Buffer:CH3CN:MeOH 65:25:10): 10.30

SMILES: C[n+]1ccc(-c2ccc(Cl)cc2)cc1 [4Cl' MPP^+]
- relative elution time (hydrophobicity) ([2]; Buffer:CH3CN 70:30): 8.66
- relative elution time (hydrophobicity) ([2]; Buffer:CH3CN:MeOH 60:30:10): 7.08
- relative elution time (hydrophobicity) ([2]; Buffer:CH3CN:MeOH 65:25:10): 9.17

SMILES: C[n+]1ccc(-c2ccc(F)cc2)cc1 [4F' MPP^+]
- relative elution time (hydrophobicity) ([2]; Buffer:CH3CN 70:30): 6.44
- relative elution time (hydrophobicity) ([2]; Buffer:CH3CN:MeOH 60:30:10): 5.68
- relative elution time (hydrophobicity) ([2]; Buffer:CH3CN:MeOH 65:25:10): 6.60

SMILES: N=C(N)SCCc1ccc(OCc2ccc([N+](=O)[O-])cc2)cc1 [KBR7943]
- effect on 4'I-MPP+ mitochondrial membrane depolarization (HepG2 cells [3]): significantly reduced
- effect on uptake of 4'I-MPP+ [1, 13]: inhibit the uptake

SMILES: C[n+]1ccc(-c2ccccc2)cc1 [MPP^+, 1-methyl-4-phenylpyridinium]
- effect on intracellular ATP levels (MN9D cells [4]): deplete intracellular ATP levels
- effect on intracellular ATP levels (HepG2 cells [5]): deplete intracellular ATP levels
- cellular uptake in 1 h (MN9D cells [6]): 0.6 nmoles/mg of protein
- HepG2 cell toxicity (HepG2 cells [7]): resistant
- IC50 (MN9D cells [8]): ~125 µM
- effect on ROS production (MN9D cells [9]): increase ROS production
- cellular uptake in 60 min (HepG2 cells [10]): about 1.2 nmoles/mg
- apoptotic cell death (chromatin condensation) (MN9D cells [11]): cause apoptotic MN9D cell death
- depolarization of the mitochondrial membrane (MN9D or HepG2 cells): 20–50%
- inhibition of the complex-I activity ([12]; 200 μM): 21%
- relative elution time (hydrophobicity) ([2]; Buffer:CH3CN 70:30): 5.92
- relative elution time (hydrophobicity) ([2]; Buffer:CH3CN:MeOH 60:30:10): 5.28
- relative elution time (hydrophobicity) ([2]; Buffer:CH3CN:MeOH 65:25:10): 6.02

SMILES: NC(=NCc1ccccc1)NC(=O)c1nc(Cl)c(N)nc1N [benzamil]
- effect on uptake of 4'I-MPP+ [1, 14]: no significant effect

SMILES: C=C(C)[C@H]1Cc2c(ccc3c2O[C@@H]2COc4cc(OC)c(OC)cc4[C@@H]2C3=O)O1 [rotenone]
- inhibition of NADH oxidation (complex-I) activity ([12]; 10 μM): about 90%

SMILES: N.N.N.N.N.N.N.N.N.N.N.N.N.N.[Cl-].[Cl-].[Cl-].[Cl-].[Cl-].[Cl-].[O-2].[O-2].[Ru+3].[Ru+3].[Ru+4] [ruthenium red]
- inhibition of 4'I-MPP+ uptake ([1]; 10 μM ruthenium red, 200 μM 4'I-MPP+): ~ 10%

SMILES: COc1ccc(CCN(C)CCCC(C#N)(c2ccc(OC)c(OC)c2)C(C)C)cc1OC (centres unmarked) [verapamil]
- effect on uptake of 4'I-MPP+ [1, 14]: no significant effect
